Measured values as given in US12637433B2, “Histone deacetylase inhibitors” (THE UNIVERSITY OF QUEENSLAND, priority 2020, dated 2026).

How the values were obtained:
Assay type in all cases: biochemical
HDAC9 = HDAC9 (Homo sapiens, UniProt Q9UKV0); experiment: Isoform selectivity, HDAC9 inhibition; conditions: Table 9; recombinant human HDAC; read-out: IC50, Class IIa HDAC9
human HDAC6 enzyme = biological target: T1, human HDAC6 enzyme (Homo sapiens, UniProt Q9UBN7); experiment: Human HDAC6 enzyme assay (Class IIb HDACs); conditions: Table 9; recombinant human HDAC
T1 construct: purchased Cayman Chemical
T1 sequence (Q9UBN7 whole entry): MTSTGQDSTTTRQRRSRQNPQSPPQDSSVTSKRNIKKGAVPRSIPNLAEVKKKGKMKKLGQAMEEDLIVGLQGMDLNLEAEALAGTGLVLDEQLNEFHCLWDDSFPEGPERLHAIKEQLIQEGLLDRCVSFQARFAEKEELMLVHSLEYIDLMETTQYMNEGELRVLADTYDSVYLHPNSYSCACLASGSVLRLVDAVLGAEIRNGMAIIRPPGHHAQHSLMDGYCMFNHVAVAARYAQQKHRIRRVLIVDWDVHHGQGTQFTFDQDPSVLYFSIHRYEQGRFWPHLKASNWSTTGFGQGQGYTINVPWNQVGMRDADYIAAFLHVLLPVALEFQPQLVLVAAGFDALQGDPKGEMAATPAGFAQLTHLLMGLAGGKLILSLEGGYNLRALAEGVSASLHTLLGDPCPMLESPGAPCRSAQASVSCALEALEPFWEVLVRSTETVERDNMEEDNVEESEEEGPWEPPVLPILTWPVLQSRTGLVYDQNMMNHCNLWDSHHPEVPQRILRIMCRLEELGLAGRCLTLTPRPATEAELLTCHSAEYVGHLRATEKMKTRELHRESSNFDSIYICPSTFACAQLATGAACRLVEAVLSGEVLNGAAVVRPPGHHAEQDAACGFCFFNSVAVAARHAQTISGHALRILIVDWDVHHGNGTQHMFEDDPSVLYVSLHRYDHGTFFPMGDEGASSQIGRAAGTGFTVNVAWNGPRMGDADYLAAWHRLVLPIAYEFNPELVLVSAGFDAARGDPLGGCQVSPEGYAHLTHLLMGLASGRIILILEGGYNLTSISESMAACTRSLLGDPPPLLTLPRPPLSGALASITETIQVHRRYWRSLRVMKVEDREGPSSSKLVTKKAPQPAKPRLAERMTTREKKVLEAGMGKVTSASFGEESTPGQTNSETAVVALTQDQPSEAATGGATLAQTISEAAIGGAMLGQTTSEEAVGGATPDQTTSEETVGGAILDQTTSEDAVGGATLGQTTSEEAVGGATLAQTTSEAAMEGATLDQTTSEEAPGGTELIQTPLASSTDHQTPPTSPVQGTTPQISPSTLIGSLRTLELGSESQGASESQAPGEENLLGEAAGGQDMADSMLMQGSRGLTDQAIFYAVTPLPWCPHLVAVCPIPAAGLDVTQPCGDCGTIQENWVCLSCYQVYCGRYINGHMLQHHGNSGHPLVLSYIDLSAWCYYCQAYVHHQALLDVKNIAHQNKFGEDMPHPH
Method: The inhibitory effect of compounds on HDAC6 activity was assessed in vitro using an optimised assay performed in black/flat black wall 384-well plate (Corning Inc.). All reagents and compounds were prepared in HDAC assay buffer (25 mM Tris-HCl, 137 mM NaCl, 2.7 mM KCl, 1 mM MgCl2·H2O and 0.1 mg/mL bovine serum albumin; pH 8). Various concentrations of inhibitor were pre-incubated with 100 ng/ml human HDAC6 enzyme (Cayman Chemical) for 15 min at room temperature on a plate shaker. Substrate (Boc-Lys(Ac)-AMC, 25 μM) were then added and incubated for 60 min at 37° C. in the dark. The enzymatic reaction was then incubated with the developer solution (1 mg/mL trypsin and 10 μM SAHA) for 15-20 min at room temperature. Fluorescence intensity was measured using PHERAstar plate reader (BMG Labtech) at 350 nm excitation and 460 nm emission.
(§1) Data analysis: Triplicate measurements were made for each data point and error bars represent mean±SEM of three independent experiments. All data were plotted and analysed using GraphPad Prism Version 6.0d for Mac OS X (GraphPad Software). Dose Response Curves plotted using 4 parameters logistic model.

HDAC4 = HDAC4 (Homo sapiens, UniProt P56524); experiment: Isoform selectivity, HDAC4 inhibition; conditions: Table 9; recombinant human HDAC; read-out: IC50, Class IIa HDAC4
Chain of HDAC4 (P56524 whole entry, canonical isoform): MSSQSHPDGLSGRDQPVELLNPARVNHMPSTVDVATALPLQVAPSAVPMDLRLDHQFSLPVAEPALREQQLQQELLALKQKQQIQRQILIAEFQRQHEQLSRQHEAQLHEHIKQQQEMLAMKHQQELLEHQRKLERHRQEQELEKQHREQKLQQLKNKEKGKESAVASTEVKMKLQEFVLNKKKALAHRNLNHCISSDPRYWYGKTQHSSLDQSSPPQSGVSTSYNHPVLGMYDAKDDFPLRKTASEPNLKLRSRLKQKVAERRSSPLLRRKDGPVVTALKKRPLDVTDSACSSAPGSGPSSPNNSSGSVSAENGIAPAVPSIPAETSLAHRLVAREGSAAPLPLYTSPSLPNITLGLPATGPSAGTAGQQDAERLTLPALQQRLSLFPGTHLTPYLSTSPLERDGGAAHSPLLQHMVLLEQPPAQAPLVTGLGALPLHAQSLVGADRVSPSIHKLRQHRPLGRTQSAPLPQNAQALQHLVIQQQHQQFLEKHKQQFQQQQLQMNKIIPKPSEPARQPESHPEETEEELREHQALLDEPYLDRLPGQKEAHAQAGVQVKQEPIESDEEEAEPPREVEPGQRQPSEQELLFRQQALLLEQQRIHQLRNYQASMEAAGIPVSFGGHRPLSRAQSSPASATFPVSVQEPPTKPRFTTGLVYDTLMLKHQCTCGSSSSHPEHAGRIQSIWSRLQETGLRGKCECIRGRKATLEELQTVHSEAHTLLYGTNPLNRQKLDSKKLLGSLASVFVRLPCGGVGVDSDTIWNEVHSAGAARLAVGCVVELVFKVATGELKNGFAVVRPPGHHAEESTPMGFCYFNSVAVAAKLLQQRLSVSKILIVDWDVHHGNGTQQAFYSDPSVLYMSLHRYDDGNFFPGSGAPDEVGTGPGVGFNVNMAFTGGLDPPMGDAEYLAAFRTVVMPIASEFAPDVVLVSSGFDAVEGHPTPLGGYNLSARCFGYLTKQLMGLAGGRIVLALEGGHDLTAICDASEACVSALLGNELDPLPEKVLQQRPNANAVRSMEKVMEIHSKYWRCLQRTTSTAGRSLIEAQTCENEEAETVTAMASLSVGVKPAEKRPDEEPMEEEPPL

HDAC5 = HDAC5 (Homo sapiens, UniProt Q9UQL6); experiment: Isoform selectivity, HDAC5 inhibition; conditions: Table 9; recombinant human HDAC; read-out: IC50, Class IIa HDAC5
human HDAC7 enzyme = biological target: T2, human HDAC7 enzyme (Homo sapiens, UniProt Q8WUI4); experiment: Human HDAC7 enzyme assay (Class IIa HDACs); conditions: Table 8; recombinant human HDAC7
T2 construct: purchased Reaction Biology Corp
T2 sequence (Q8WUI4 whole entry): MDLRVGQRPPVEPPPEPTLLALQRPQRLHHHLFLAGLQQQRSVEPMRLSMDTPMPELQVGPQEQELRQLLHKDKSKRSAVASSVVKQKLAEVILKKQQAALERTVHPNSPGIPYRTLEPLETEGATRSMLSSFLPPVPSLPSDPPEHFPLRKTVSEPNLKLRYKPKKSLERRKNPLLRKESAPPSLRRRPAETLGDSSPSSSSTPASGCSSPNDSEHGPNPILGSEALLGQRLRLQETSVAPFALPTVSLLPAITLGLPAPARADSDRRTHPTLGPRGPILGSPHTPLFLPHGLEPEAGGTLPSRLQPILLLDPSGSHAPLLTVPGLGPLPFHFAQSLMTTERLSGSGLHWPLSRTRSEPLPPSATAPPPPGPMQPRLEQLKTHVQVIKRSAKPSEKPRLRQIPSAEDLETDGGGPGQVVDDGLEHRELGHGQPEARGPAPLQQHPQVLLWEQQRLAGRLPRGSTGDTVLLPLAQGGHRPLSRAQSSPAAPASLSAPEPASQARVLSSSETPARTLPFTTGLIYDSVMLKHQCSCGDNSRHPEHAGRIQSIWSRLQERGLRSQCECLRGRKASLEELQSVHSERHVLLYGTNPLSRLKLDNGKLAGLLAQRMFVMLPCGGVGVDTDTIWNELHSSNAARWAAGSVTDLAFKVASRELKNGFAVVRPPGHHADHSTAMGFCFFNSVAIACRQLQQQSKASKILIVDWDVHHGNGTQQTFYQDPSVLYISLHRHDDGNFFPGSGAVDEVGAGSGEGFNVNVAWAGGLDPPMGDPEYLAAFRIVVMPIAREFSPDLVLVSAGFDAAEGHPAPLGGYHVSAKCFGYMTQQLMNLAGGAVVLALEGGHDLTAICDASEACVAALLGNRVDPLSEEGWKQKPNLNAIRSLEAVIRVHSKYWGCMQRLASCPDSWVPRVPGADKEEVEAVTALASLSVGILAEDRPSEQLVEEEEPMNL

human HDAC1 enzyme = biological target: T3, human HDAC1 enzyme (Homo sapiens, UniProt Q13547); experiment: Human HDAC1 enzyme assay (Class I HDACs); conditions: Table 8; recombinant human HDAC1; read-out: IC50 (nM) (HDAC1)
T3 construct: purchased BPS Bioscience
T3 sequence (Q13547 whole entry): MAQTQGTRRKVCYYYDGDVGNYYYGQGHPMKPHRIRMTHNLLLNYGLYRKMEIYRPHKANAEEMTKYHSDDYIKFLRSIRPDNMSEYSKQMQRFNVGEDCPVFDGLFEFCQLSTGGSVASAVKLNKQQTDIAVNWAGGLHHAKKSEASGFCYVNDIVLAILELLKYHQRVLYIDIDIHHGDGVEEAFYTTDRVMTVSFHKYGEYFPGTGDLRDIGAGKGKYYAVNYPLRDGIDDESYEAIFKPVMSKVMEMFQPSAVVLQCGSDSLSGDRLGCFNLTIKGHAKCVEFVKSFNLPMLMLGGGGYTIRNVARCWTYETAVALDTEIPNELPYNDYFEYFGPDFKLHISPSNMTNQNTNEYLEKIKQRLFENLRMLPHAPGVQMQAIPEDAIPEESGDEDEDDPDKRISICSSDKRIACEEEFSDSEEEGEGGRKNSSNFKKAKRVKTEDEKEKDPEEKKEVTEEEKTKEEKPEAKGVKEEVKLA
Method: The inhibitory effect of compounds on HDAC1 activity was assessed in vitro using an optimised assay performed in black/flat black wall 384-well plate (Corning Inc.). All reagents and compounds were prepared in HDAC1 assay buffer (25 mM Tris-HCl, 137 mM NaCl, 2.7 mM KCl, 1 mM MgCl2·H2O and 0.1 mg/mL bovine serum albumin; pH 8). Various concentrations of inhibitor were pre-incubated with 50 ng/mL human HDAC1 enzyme (BPS Bioscience) for 30 min at room temperature on a plate shaker. Substrate (Leu(Ac)-Gly-Lys(Ac)-AMC, 12 μM) were then added and incubated for 90 min at 37° C. in the dark. The enzymatic reaction was then incubated with the developer solution (1 mg/mL trypsin and 25 μM SAHA) for 15-20 min at room temperature. Fluorescence intensity was measured using PHERAstar plate reader (BMG Labtech) at 350 nm excitation and 460 nm emission.
as §1

Chain of HDAC9 (Q9UKV0 whole entry, canonical isoform): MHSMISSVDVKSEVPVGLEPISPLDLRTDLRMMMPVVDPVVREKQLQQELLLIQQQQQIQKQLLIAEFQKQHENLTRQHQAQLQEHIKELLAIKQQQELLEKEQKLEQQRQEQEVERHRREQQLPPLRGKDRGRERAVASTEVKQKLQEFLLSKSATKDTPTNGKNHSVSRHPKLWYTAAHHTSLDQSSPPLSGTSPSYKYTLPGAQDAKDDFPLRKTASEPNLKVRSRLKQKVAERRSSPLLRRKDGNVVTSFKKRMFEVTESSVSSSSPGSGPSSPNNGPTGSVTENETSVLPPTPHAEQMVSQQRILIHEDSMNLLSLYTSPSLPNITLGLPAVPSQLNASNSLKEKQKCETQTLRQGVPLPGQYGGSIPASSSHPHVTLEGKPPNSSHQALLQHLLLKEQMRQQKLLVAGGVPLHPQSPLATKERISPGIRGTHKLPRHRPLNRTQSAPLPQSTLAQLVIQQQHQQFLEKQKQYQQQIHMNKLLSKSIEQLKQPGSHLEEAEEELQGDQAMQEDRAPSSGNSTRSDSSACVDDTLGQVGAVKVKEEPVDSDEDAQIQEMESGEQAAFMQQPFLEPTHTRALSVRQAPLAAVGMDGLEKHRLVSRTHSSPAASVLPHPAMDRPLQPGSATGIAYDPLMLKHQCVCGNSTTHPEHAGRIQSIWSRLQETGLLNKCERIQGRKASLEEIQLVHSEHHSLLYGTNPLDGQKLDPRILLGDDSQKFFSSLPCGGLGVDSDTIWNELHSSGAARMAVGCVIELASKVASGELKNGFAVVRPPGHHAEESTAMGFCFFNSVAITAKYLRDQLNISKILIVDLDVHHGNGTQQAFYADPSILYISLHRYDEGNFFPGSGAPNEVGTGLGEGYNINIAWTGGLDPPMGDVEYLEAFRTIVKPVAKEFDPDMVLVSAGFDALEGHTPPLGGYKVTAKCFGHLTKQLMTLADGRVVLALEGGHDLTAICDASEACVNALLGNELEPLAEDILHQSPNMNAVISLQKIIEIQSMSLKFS

IC50 (HDAC9): 17 ± 3 nM
IC50 (human HDAC6 enzyme): 1100 nM
IC50 (HDAC4): 42 ± 7 nM
IC50 (HDAC5): 9 ± 2 nM
IC50 (human HDAC7 enzyme): 7.3 ± 1.2 nM
IC50 (human HDAC1 enzyme): 2200 nM
SMILES: Cc1nc2ccccc2c(=O)n1Cc1ccc(C(=O)NO)c(-c2ccccc2)c1 [compound 12]
